Measured values as given in DBAASP.
In brackets after ≈: the same amount, converted by molar mass.

What was measured:
Assay in all cases: ≥ marks a high value that may be exact or a test limit, other limits are often not marked, values filed in µg/mL are converted to µM
[1] = test system: Staphylococcus aureus ATCC 6538
[2] = test system: Staphylococcus aureus ATCC 43300
[3] = test system: Escherichia coli ATCC 8739
[4] = test system: Bacillus subtilis ATCC 6633
[5] = test system: Staphylococcus aureus ATCC 25923
[6] = test system: Escherichia coli ATCC 25726
[7] = test system: Escherichia coli ATCC 25922
[8] = test system: Staphylococcus aureus ATCC 29213
[9] = test system: Salmonella enterica subsp. enterica serovar Pullorum C79-13
[10] = test system: Bacillus subtilis CMCC 63501
[11] = test system: Salmonella enterica subsp. enterica serovar Typhimurium C77-31
Escherichia coli UB1005 = test system: Escherichia coli UB1005
[12] = test system: Pseudomonas aeruginosa ATCC 27853
[13] = test system: Enterococcus faecalis ATCC 29212
[14] = test system: Staphylococcus epidermidis ATCC 12228
[15] = test system: Bacillus subtilis ATCC 23857
Escherichia coli JW0013 = test system: Escherichia coli JW0013
[16] = test system: Klebsiella pneumoniae ATCC 700603
[17] = test system: Acinetobacter baumannii ATCC 19606

SMILES: CC[C@H](C)[C@@H]1NC(=O)[C@H](CCCCN)NC(=O)[C@@H](NC(=O)[C@H](CO)NC(=O)[C@H](CC(C)C)NC(=O)[C@H](C)NC(=O)[C@H](CC(N)=O)NC(=O)[C@H](CC(C)C)NC(=O)[C@@H](NC(=O)[C@H](CO)NC(=O)[C@@H](NC(=O)CNC(=O)[C@H](C)NC(=O)[C@H](CO)NC(=O)[C@H](CCCCN)NC(=O)[C@H](C)NC(=O)[C@H](C)NC(=O)[C@H](CC(N)=O)NC(=O)[C@@H](NC(=O)[C@H](C)NC(=O)[C@H](CC(C)C)NC(=O)[C@H](CC(N)=O)NC(=O)[C@H](CCCCN)NC(=O)[C@H](Cc2ccccc2)NC(=O)[C@@H](NC(=O)[C@H](CC(=O)O)NC(=O)[C@H](CC(C)C)NC(=O)[C@H](CC(C)C)NC(=O)[C@@H](N)CO)[C@@H](C)O)C(C)C)C(C)C)C(C)C)CSSC[C@@H](C(=O)O)NC(=O)[C@H]([C@@H](C)O)NC(=O)[C@H](CCCN=C(N)N)NC(=O)[C@H](CO)NC1=O [SLLDTFKNLAVNAAKSAGVSVLNALSCKISRTC]
- MIC [1]: 12.5 µM (≈ 42.4 µg/mL)
- MIC [2]: 100 µM (≈ 339 µg/mL)
- MIC [3]: ≥ 50 µM
- MIC [4]: 12.5 µM (≈ 42.4 µg/mL)

SMILES: CC[C@H](C)[C@H](NC(=O)[C@H](CCCCN)NC(=O)[C@H](C)NC(=O)[C@H](C)NC(=O)[C@H](CC(C)C)NC(=O)CNC(=O)[C@H](C)NC(=O)[C@H](CC(C)C)NC(=O)[C@@H](NC(=O)[C@@H]1CCCN1C(=O)[C@H](CC(C)C)NC(=O)[C@@H](N)Cc1ccccc1)[C@@H](C)CC)C(=O)N[C@H](C(=O)N1CCC[C@H]1C(=O)N[C@@H](CCCCN)C(=O)N[C@@H](CC(C)C)C(=O)N[C@@H](Cc1ccccc1)C(=O)N[C@H]1CSSC[C@@H](C(=O)O)NC(=O)[C@H](CCCCN)NC(=O)[C@H](CCCCN)NC(=O)[C@H]([C@@H](C)O)NC(=O)[C@H](C)NC(=O)[C@H](CC(C)C)NC1=O)C(C)C [FLPILAGLAAKIVPKLFCLATKKC]
- MIC [5]: 2 µM (≈ 5.11 µg/mL)
- MIC [6]: ≥ 32 µM

SMILES: CC[C@H](C)[C@H](NC(=O)[C@H](CC(C)C)NC(=O)[C@H](CC(C)C)NC(=O)[C@H](CC(=O)O)NC(=O)[C@H](CCCCN)NC(=O)[C@@H](NC(=O)[C@@H](NC(=O)CNC(=O)[C@H](CC(C)C)NC(=O)[C@@H](NC(=O)[C@@H](N)CO)C(C)C)[C@@H](C)O)C(C)C)C(=O)NCC(=O)N[C@@H](C)C(=O)NCC(=O)N[C@@H](CCCCN)C(=O)N[C@@H](CO)C(=O)N[C@@H](C)C(=O)N[C@@H](C)C(=O)N[C@@H](CCC(N)=O)C(=O)N[C@@H](CO)C(=O)N[C@H](C(=O)N[C@@H](CC(C)C)C(=O)N[C@H](C(=O)N[C@H](C(=O)N[C@@H](CC(C)C)C(=O)N[C@@H](CO)C(=O)N[C@H]1CSSC[C@@H](C(=O)O)NC(=O)[C@H](CO)NC(=O)[C@H](CC(N)=O)NC(=O)[C@H](CO)NC(=O)[C@H](CC(C)C)NC(=O)[C@H](CCCCN)NC1=O)[C@@H](C)O)[C@@H](C)O)C(C)C [SVLGTVKDLLIGAGKSAAQSVLTTLSCKLSNSC]
- MIC [1]: 25 µM (≈ 81.6 µg/mL)
- MIC [3]: ≥ 50 µM

SMILES: CC[C@H](C)[C@H](NC(=O)[C@H](CCCN=C(N)N)NC(=O)CNC(=O)[C@@H](NC(=O)[C@@H](NC(=O)[C@H](CCCN=C(N)N)NC(=O)[C@H](CCCCN)NC(=O)[C@H](Cc1ccccc1)NC(=O)[C@H](CCC(=O)O)NC(=O)[C@H](CCCCN)NC(=O)CN)[C@@H](C)CC)C(C)C)C(=O)N[C@@H](Cc1ccc(O)cc1)C(=O)N[C@@H](CCCN=C(N)N)C(=O)N[C@@H](CC(C)C)C(=O)N[C@@H](CS)C(=O)N[C@@H](CS)C(=O)N[C@@H](CCCN=C(N)N)C(N)=O [GKEFKRIVGRIYRLCCR]
- MIC [7]: 4 µM (≈ 8.39 µg/mL)
- MIC [2]: 8 µM (≈ 16.8 µg/mL)
- MIC [8]: 16 µM (≈ 33.5 µg/mL)
- MIC [9]: 8 µM (≈ 16.8 µg/mL)
- MIC [10]: 8 µM (≈ 16.8 µg/mL)
- MIC [11]: 8 µM (≈ 16.8 µg/mL)
- MIC (Escherichia coli UB1005): 4 µM (≈ 8.39 µg/mL)
- MIC [12]: 16 µM (≈ 33.5 µg/mL)
- MIC [13]: 16 µM (≈ 33.5 µg/mL)
- MIC [14]: 16 µM (≈ 33.5 µg/mL)

SMILES: CC[C@H](C)[C@H](NC(=O)[C@H](C)NC(=O)[C@H](CC(N)=O)NC(=O)[C@@H](N)CCSC)C(=O)N[C@@H](CC(N)=O)C(=O)N[C@@H](Cc1ccccc1)C(=O)N[C@H](C(=O)N[C@@H](CS)C(=O)N[C@H](C(=O)N[C@H](C(=O)N[C@@H](Cc1cnc[nH]1)C(=O)N[C@@H](CCCCN)C(=O)N[C@@H](CCCCN)C(=O)N[C@H](C(=O)N[C@@H](C)C(=O)N[C@H](C(=O)N[C@@H](CO)C(=O)N[C@H](C(=O)O)C(C)C)[C@@H](C)CC)C(C)C)C(C)C)[C@@H](C)O)[C@@H](C)O [MNAINFTCTVHKKVAISV]
- MIC [5]: > 130 µM
- MIC [3]: ≥ 130 µM

SMILES: CC[C@H](C)[C@H](NC(=O)[C@H](CCCCN)NC(=O)[C@H](CO)NC(=O)[C@H](C)NC(=O)[C@H](Cc1c[nH]c2ccccc12)NC(=O)CN)C(=O)NCC(=O)N[C@@H](CCC(N)=O)C(=O)N[C@H](C(=O)N[C@@H](CC(C)C)C(=O)NCC(=O)N[C@@H](CCCCN)C(=O)N[C@@H](CCSC)C(=O)N[C@@H](C)C(=O)N[C@@H](CCCCN)C(=O)N[C@H](C(=O)NCC(=O)N[C@@H](CC(C)C)C(=O)N[C@@H](CCC(N)=O)C(=O)N[C@@H](CCC(=O)O)C(=O)N[C@H](C(=O)N[C@H](C(=O)N[C@@H](CCC(N)=O)C(=O)N1CCC[C@H]1C(=O)N[C@@H](CCCCN)C(=O)O)[C@@H](C)CC)[C@@H](C)CC)C(C)C)[C@@H](C)O [GWASKIGQTLGKMAKVGLQEIIQPK]
- MIC [5]: > 50 µM
- MIC [6]: ≥ 50 µM

SMILES: CC[C@H](C)[C@H](NC(=O)CNC(=O)[C@H](C)NC(=O)[C@@H](NC(=O)[C@H](C)NC(=O)CN)[C@@H](C)CC)C(=O)N[C@H](C(=O)N[C@H](C(=O)N[C@@H](CCCCN)C(=O)N[C@H](C(=O)N[C@@H](CCCCN)C(=O)N[C@@H](CCCCN)C(N)=O)[C@@H](C)CC)[C@@H](C)CC)[C@@H](C)CC [GAIAGIIIKIKK]
- MIC [7]: 64 µM (≈ 78.3 µg/mL)
- MIC [15]: ≥ 32 µM

SMILES: CC[C@H](C)[C@H](NC(=O)[C@H](CCCCN)NC(=O)[C@@H](N)CCCN=C(N)N)C(=O)N[C@@H](CCCN=C(N)N)C(=O)N1CCC[C@H]1C(=O)N[C@@H](CCCN=C(N)N)C(=O)N1CCC[C@H]1C(=O)N1CCC[C@H]1C(=O)N[C@@H](CCCN=C(N)N)C(=O)N[C@@H](CC(C)C)C(=O)N1CCC[C@H]1C(=O)N[C@@H](CCCN=C(N)N)C(=O)N1CCC[C@H]1C(=O)N[C@@H](CCCN=C(N)N)C(=O)N1CCC[C@H]1C(=O)N[C@@H](CCCN=C(N)N)C(=O)O [RKIRPRPPRLPRPRPR]
- MIC (Escherichia coli JW0013): 0.3 µM (≈ 0.615 µg/mL)

SMILES: NC(=O)[C@H](Cc1c[nH]c2ccccc12)NC(=O)[C@H](Cc1c[nH]c2ccccc12)NC(=O)[C@H](CCCN=C(N)N)NC(=O)[C@H](CCCN=C(N)N)NC(=O)[C@H](Cc1c[nH]c2ccccc12)NC(=O)[C@H](CCCN=C(N)N)NC(=O)[C@H](CCCN=C(N)N)NC(=O)[C@H](Cc1c[nH]c2ccccc12)NC(=O)[C@H](Cc1c[nH]c2ccccc12)NC(=O)[C@@H](N)CCCN=C(N)N [RWWRRWRRWW]
- MIC [7]: 32 µM (≈ 55.3 µg/mL)
- MIC [5]: 8 µM (≈ 13.8 µg/mL)
- MIC [16]: 32 µM (≈ 55.3 µg/mL)
- MIC [15]: 4 µM (≈ 6.92 µg/mL)
- MIC [12]: 8 µM (≈ 13.8 µg/mL)
- MIC [13]: 32 µM (≈ 55.3 µg/mL)
- MIC [14]: 32 µM (≈ 55.3 µg/mL)
- MIC [17]: 32 µM (≈ 55.3 µg/mL)

SMILES: CC[C@H](C)[C@H](NC(=O)[C@H](CCCN=C(N)N)NC(=O)[C@H](CCCN=C(N)N)NC(=O)[C@@H]1CCCN1C(=O)[C@@H]1CCCN1C(=O)[C@H](CCCN=C(N)N)NC(=O)[C@H](CCCCN)NC(=O)[C@H](CCCN=C(N)N)NC(=O)[C@@H]1CCCN1C(=O)[C@H](CC(C)C)NC(=O)[C@H](Cc1ccc(O)cc1)NC(=O)[C@H](Cc1cnc[nH]1)NC(=O)[C@H](CCCN=C(N)N)NC(=O)[C@H](CCCCN)NC(=O)[C@H](CC(=O)O)NC(=O)[C@@H](N)C(C)C)C(=O)N[C@@H](Cc1ccc(O)cc1)C(=O)N[C@@H](CC(N)=O)C(=O)N[C@@H](CCCN=C(N)N)C(N)=O [VDKRHYLPRKRPPRRIYNR]
- MIC (Escherichia coli JW0013): 0.635 µM (≈ 1.6 µg/mL)

SMILES: NC(=O)[C@@H]1CCCN1C(=O)[C@H](CCCN=C(N)N)NC(=O)[C@@H]1CCCN1C(=O)[C@H](CCCN=C(N)N)NC(=O)[C@H](CS)NC(=O)[C@H](Cc1ccccc1)NC(=O)[C@H](CCCN=C(N)N)NC(=O)[C@H](CCCN=C(N)N)NC(=O)[C@H](CCCN=C(N)N)NC(=O)[C@H](CS)NC(=O)[C@H](CCCN=C(N)N)NC(=O)[C@@H]1CCCN1C(=O)[C@H](CCCN=C(N)N)NC(=O)[C@@H]1CCCN1 [PRPRCRRRFCRPRP]
- MIC [7]: 16 µM (≈ 29.6 µg/mL)
- MIC [8]: > 128 µM
- MIC [9]: ≥ 128 µM
- MIC [10]: 8 µM (≈ 14.8 µg/mL)
- MIC [11]: ≥ 128 µM
- MIC [12]: > 128 µM
- MIC [13]: > 128 µM
- MIC [14]: > 128 µM
